From ChEMBL document CHEMBL3612022, “Regioselectively controlled synthesis of 3(5)-(trifluoromethyl)pyrazolylbenzenesulfonamides and their effects on a pathological pain model in mice” (Eur J Med Chem, 2015)
Calls of active or inactive are those of the source.

Key:
[1] = test system: Mus musculus; experiment: Antihyperalgesic effect in Swiss mouse assessed as inhibition of CFA-induced paw withdrawal threshold at 300 mg/kg, po after 2 hrs; type: functional
[2] = test system: Mus musculus; experiment: Locomotor activity in Swiss mouse assessed as motor impairment at 300 mg/kg, po by open-field test; type: toxicity, organism-based; conditions: in vivo
[3] = test system: Mus musculus; experiment: Locomotor activity in Swiss mouse assessed as motor impairment at 300 mg/kg, po by rotarod test; type: toxicity, organism-based; conditions: in vivo
[4] = test system: Mus musculus; experiment: Antiedematogenic effect in Swiss mouse assessed as inhibition of CFA-induced paw edema at 300 mg/kg, po after 2 hrs; type: functional
[5] = test system: Mus musculus; experiment: Antihyperalgesic effect in po dosed Swiss mouse assessed as inhibition of CFA-induced paw withdrawal threshold after 2 hrs; type: functional
[6] = test system: Mus musculus; experiment: Antiedematogenic effect in Swiss mouse assessed as inhibition of CFA-induced paw edema at 300 mg/kg, po after 1 to 6 hrs; type: functional, organism-based
[7] = test system: Mus musculus; experiment: Antihyperalgesic effect in Swiss mouse assessed as inhibition of CFA-induced paw withdrawal threshold at 300 mg/kg, po after 0.5 to 6 hrs; type: functional, organism-based

| Compound | inhibition in vivo at 300 mg/kg [1] [%] | Activity [2] | Activity [3] | inhibition in vivo at 300 mg/kg [4] [%] | inhibition [1] | IC [5] [mg/kg] | inhibition [6] | inhibition [7] |
| --- | --- | --- | --- | --- | --- | --- | --- | --- |
| NS(=O)(=O)c1ccc(N2N=C(c3ccc(F)cc3)CC2(O)C(F)(F)F)cc1 (stereo not drawn) | 62 | Non-toxic | Non-toxic |  |  |  |  |  |
| NS(=O)(=O)c1ccc(N2N=C(c3ccc(Br)cc3)CC2(O)C(F)(F)F)cc1 (stereo not drawn) | 57 | Non-toxic | Non-toxic | 46 |  |  |  |  |
| NS(=O)(=O)c1ccc(N2N=C(c3ccc(Cl)cc3)CC2(O)C(F)(F)F)cc1 (stereo not drawn) | 57 | Non-toxic | Non-toxic |  |  |  |  |  |
| NS(=O)(=O)c1ccc(N2N=C(c3ccco3)CC2(O)C(F)(F)F)cc1 (stereo not drawn) |  | Non-toxic | Non-toxic | 48 | inactive |  |  |  |
| Cc1ccc(C2=NN(c3ccc(S(N)(=O)=O)cc3)C(O)(C(F)(F)F)C2)cc1 (stereo not drawn) | 64 | Non-toxic | Non-toxic | 45 |  | 539.3 | Active | Active |
| Cc1ccc(-c2cc(C(F)(F)F)nn2-c2ccc(S(N)(=O)=O)cc2)cc1 [CELECOXIB] | 77 |  |  | 53 |  | 652.1 |  | Active |
| COc1ccc(C2=NN(c3ccc(S(N)(=O)=O)cc3)C(O)(C(F)(F)F)C2)cc1 (stereo not drawn) |  | Non-toxic | Non-toxic | 46 | inactive |  |  |  |
| NS(=O)(=O)c1ccc(N2N=C(c3ccccc3)CC2(O)C(F)(F)F)cc1 (stereo not drawn) | 52 | Non-toxic | Non-toxic | 44 |  |  |  |  |
